Source: patent US10442788B2, “Hepatitis B antiviral agents” (ENANTA PHARMACEUTICALS, INC., priority 2015, dated 2019)

How the values were obtained:
HBV = experiment: HepAD38 antiviral assay: reduction of viral product accumulation (virion DNA by qPCR, HBsAg or HBeAg by ELISA); assay type: cell-based; conditions: Hepatitis B virus, 120 h; HepAD38 cells, five days after compound addition; 50% reduction of viral product accumulation relative to no drug controls; read-out: HepAD38 EC50
How it was run: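 Tetracycline-washed HepAD38 cells treated with compound (DMSO diluted 1:200) for 5 days, or 8 days with media and compound refreshed on d2 and d5. Virion DNA from lysates quantified by qPCR; HBsAg or HBeAg by ELISA. EC50 is the concentration giving 50% reduction versus no-drug controls, reported as ranges A<1 μM, B 1-10 μM, C>10 μM.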

[1] = Compound toxicity, ATPLite total ATP levels; assay type: cell-based; conditions: human, HepAD38 cells; 15,000 cells/well, three days after compound addition; 50% reduction of total ATP levels relative to no drug controls
How it was run: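 HepAD38 cells, washed free of tetracycline, seeded at 15,000 cells/well and given compound (DMSO stock diluted 1:200) for 3 days. Total ATP read by ATPLite; CC50 is the concentration cutting ATP by 50% versus no-drug controls, reported as ranges A>30 μM, B 10-30 μM, C<10 μM.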

CNCCNS(=O)(=O)c1cc(-c2nc(-c3ccc(Br)c(F)c3)c[nH]2)ccc1Cl [Example 118]
EC50 (HBV): < 1 µM
CC50 at 3 days [1]: > 30 µM

COC(=O)NCCNS(=O)(=O)c1cc(-c2nc(-c3ccc(Br)c(F)c3)c[nH]2)ccc1Cl [Example 119]
EC50 (HBV): < 1 µM
CC50 at 3 days [1]: < 10 µM

COC(=O)NCC(C)NS(=O)(=O)c1cc(-c2nc(-c3ccc(Br)c(F)c3)c[nH]2)ccc1Cl (stereo not drawn) [Example 120]
EC50 (HBV): < 1 µM
CC50 at 3 days [1]: < 10 µM

Cc1ccccc1-c1c[nH]c(-c2ccc(Cl)c(S(=O)(=O)N3CCC(O)CC3)c2)n1 [Example 121]
EC50 (HBV): 1 to 10 µM
CC50 at 3 days [1]: > 30 µM

O=S(=O)(c1cc(-c2nc(-c3ccccc3C3CC3)c[nH]2)ccc1Cl)N1CCC(O)CC1 [Example 122]
EC50 (HBV): > 10 µM
CC50 at 3 days [1]: > 30 µM

O=S(=O)(c1cc(-c2nc(-c3ccc(Br)c(F)c3)c[nH]2)ccc1Cl)N1CCC(F)CC1 [Example 123]
EC50 (HBV): < 1 µM
CC50 at 3 days [1]: > 30 µM

O=S(=O)(c1cc(-c2nc(-c3ccc(Br)c(F)c3)c[nH]2)ccc1Cl)N1CCC(F)(F)CC1 [Example 124]
EC50 (HBV): < 1 µM
CC50 at 3 days [1]: < 10 µM

COC(=O)CNS(=O)(=O)c1cc(-c2nc(-c3ccc(Br)c(F)c3)c[nH]2)ccc1Cl [Example 125]
EC50 (HBV): > 10 µM
CC50 at 3 days [1]: > 30 µM

COC(=O)CN(C)S(=O)(=O)c1cc(-c2nc(-c3ccc(Br)c(F)c3)c[nH]2)ccc1Cl [Example 126]
EC50 (HBV): > 10 µM
CC50 at 3 days [1]: > 30 µM

CC(CO)NS(=O)(=O)c1cc(-c2nc(-c3ccc(Br)c(F)c3)c[nH]2)ccc1Cl (stereo not drawn) [Example 127]
EC50 (HBV): < 1 µM
CC50 at 3 days [1]: > 30 µM

COC(=O)C(C)NS(=O)(=O)c1cc(-c2nc(-c3ccc(Br)c(F)c3)c[nH]2)ccc1Cl (stereo not drawn) [Example 128]
EC50 (HBV): > 10 µM
CC50 at 3 days [1]: > 30 µM

CC(CO)N(C)S(=O)(=O)c1cc(-c2nc(-c3ccc(Br)c(F)c3)c[nH]2)ccc1Cl (stereo not drawn) [Example 129]
EC50 (HBV): < 1 µM
CC50 at 3 days [1]: < 10 µM

O=S(=O)(c1cc(-c2nc(-c3ccc(Br)c(F)c3)c[nH]2)ccc1Cl)N1CCN(c2ccccn2)CC1 [Example 130]
EC50 (HBV): < 1 µM
CC50 at 3 days [1]: > 30 µM

O=S(=O)(c1cc(-c2nc(-c3cc(F)c(Br)c(F)c3)c[nH]2)ccc1Cl)N1CCC(O)CC1 [Example 131]
EC50 (HBV): < 1 µM
CC50 at 3 days [1]: > 30 µM

O=S(=O)(c1cc(-c2nc(-c3ccc(Br)c(F)c3)c[nH]2)ccc1Cl)N1CCCCC(O)C1 (stereo not drawn) [Example 132]
EC50 (HBV): < 1 µM
CC50 at 3 days [1]: > 30 µM

O=S(=O)(c1cc(-c2nc(-c3ccc(Br)c(F)c3)c[nH]2)ccc1Cl)N1CCC(O)(CO)CC1 [Example 133]
EC50 (HBV): < 1 µM
CC50 at 3 days [1]: > 30 µM

CC(O)C(C)(C)NS(=O)(=O)c1cc(-c2nc(-c3ccc(Br)c(F)c3)c[nH]2)ccc1Cl (stereo not drawn) [Example 134]
EC50 (HBV): < 1 µM
CC50 at 3 days [1]: > 30 µM

O=S(=O)(c1cc(-c2nc(-c3ccc(Br)c(Br)c3)c[nH]2)ccc1Cl)N1CCC(O)CC1 [Example 135]
EC50 (HBV): < 1 µM
CC50 at 3 days [1]: > 30 µM

O=S(=O)(c1cc(-c2nc(-c3cccc(C4CC4)c3)c[nH]2)ccc1Cl)N1CCC(O)CC1 [Example 136]
EC50 (HBV): 1 to 10 µM
CC50 at 3 days [1]: > 30 µM

O=S(=O)(c1cc(-c2nc(-c3ccc(Br)c(F)c3)c[nH]2)ccc1Cl)N1CCCC(O)CC1 (stereo not drawn) [Example 137]
EC50 (HBV): < 1 µM
CC50 at 3 days [1]: > 30 µM

CC(C)(C)OC(=O)NCCCNS(=O)(=O)c1cc(-c2nc(-c3ccc(Br)c(F)c3)c[nH]2)ccc1Cl [Example 138]
EC50 (HBV): < 1 µM
CC50 at 3 days [1]: > 30 µM

COC(=O)NCCCNS(=O)(=O)c1cc(-c2nc(-c3ccc(Br)c(F)c3)c[nH]2)ccc1Cl [Example 139]
EC50 (HBV): < 1 µM
CC50 at 3 days [1]: > 30 µM

CC(C)OC(=O)NCCCNS(=O)(=O)c1cc(-c2nc(-c3ccc(Br)c(F)c3)c[nH]2)ccc1Cl [Example 140]
EC50 (HBV): < 1 µM
CC50 at 3 days [1]: > 30 µM

CC(C)(C)OC(=O)N1CCN(S(=O)(=O)c2cc(-c3nc(-c4ccc(Br)c(F)c4)c[nH]3)ccc2Cl)CC1 [Example 142]
EC50 (HBV): 1 to 10 µM
CC50 at 3 days [1]: < 10 µM
